Test results as given in paper PMC5340297 (Bioorganic & medicinal chemistry letters, 2016).

Legend:
[1] = biological target: T1, rM4 (Rattus norvegicus, UniProt P08485); assay: Calcium mobilization assay with rM4/Gqi5-CHO cells, EC20 acetylcholine; type: cell-based; settings: 9a vs 6
T1 sequence (P08485 1-478): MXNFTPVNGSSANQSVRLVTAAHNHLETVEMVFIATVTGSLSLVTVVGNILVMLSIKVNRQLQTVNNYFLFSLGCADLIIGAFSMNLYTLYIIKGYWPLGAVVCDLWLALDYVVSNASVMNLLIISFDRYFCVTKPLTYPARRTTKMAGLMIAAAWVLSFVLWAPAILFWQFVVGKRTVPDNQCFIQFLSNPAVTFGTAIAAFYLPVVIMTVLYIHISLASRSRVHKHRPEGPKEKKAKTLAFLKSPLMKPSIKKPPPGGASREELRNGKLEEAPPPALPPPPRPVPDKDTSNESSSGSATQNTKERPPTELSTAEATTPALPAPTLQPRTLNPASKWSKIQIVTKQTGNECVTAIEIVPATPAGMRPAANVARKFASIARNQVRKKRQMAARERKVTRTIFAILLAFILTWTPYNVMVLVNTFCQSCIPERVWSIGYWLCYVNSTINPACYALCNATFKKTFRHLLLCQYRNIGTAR

[2] = Rat brain:plasma partition coefficients; type: in vivo; settings: 0.25 hr after IV cassette dose (0.20-0.25 mg/kg), male SD rat, n=1
[3] = In vitro clearance, human; settings: predicted
[4] = biological target: SERT (Homo sapiens, UniProt P31645); assay: Off-target full CRC, SERT; type: binding
SERT, sequence (P31645 whole entry, species assumed): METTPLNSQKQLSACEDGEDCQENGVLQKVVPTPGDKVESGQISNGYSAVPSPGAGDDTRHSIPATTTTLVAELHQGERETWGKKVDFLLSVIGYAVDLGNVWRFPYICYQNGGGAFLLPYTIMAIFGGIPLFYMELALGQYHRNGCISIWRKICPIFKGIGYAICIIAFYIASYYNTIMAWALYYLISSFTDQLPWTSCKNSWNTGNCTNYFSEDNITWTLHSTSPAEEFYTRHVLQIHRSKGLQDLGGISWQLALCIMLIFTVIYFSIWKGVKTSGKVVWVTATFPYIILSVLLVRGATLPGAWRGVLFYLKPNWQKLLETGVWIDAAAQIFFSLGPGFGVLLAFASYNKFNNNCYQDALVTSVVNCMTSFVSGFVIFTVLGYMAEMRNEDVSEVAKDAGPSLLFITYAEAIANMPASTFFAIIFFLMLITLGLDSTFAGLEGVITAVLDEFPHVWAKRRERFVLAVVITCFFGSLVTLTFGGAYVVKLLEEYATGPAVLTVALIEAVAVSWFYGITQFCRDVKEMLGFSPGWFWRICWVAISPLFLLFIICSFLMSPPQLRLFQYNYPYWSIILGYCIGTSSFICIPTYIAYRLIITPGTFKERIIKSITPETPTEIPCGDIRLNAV

[5] = system: 68 GPCRs, ion channels and transporter; assay: Eurofin Lead Profiling radioligand binding panel; settings: 10 μM
[6] = system: rat M1-3,5; assay: Muscarinic subtype selectivity, rat M1-3,5; type: cell-based; settings: read-out: EC50 at rat M1-3,5; no activity
[7] = biological target: Cytochrome P450 2D6 (Homo sapiens, UniProt P10635); assay: Cytochrome P450 inhibition, 2D6; type: in vitro ADME
Cytochrome P450 2D6, sequence (P10635 whole entry): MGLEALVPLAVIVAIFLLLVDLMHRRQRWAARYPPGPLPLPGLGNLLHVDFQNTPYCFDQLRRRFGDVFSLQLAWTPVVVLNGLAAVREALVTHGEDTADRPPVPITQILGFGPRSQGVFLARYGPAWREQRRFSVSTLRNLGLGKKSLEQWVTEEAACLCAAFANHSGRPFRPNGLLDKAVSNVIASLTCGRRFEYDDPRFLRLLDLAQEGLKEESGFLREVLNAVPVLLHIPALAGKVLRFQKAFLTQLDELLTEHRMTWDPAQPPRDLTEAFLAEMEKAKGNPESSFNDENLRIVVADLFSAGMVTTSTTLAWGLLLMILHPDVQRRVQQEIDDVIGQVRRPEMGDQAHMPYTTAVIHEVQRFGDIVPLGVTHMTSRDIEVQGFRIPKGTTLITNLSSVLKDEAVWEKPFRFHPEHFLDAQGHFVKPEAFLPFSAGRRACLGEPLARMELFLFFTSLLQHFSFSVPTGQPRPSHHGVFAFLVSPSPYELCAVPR

[8] = system: amphetamine-induced hyperlocomotion; settings: rat, 0.75 mg/kg amphetamine s.c., n = 7-8 per dose group
[9] = biological target: hCav1 2 (Homo sapiens, UniProt Q13936); assay: Off-target full CRC, hCav1 2; type: binding
[10] = biological target: DAT (Homo sapiens, UniProt Q01959); assay: Off-target full CRC, DAT; type: binding
DAT, sequence (Q01959 whole entry, species assumed): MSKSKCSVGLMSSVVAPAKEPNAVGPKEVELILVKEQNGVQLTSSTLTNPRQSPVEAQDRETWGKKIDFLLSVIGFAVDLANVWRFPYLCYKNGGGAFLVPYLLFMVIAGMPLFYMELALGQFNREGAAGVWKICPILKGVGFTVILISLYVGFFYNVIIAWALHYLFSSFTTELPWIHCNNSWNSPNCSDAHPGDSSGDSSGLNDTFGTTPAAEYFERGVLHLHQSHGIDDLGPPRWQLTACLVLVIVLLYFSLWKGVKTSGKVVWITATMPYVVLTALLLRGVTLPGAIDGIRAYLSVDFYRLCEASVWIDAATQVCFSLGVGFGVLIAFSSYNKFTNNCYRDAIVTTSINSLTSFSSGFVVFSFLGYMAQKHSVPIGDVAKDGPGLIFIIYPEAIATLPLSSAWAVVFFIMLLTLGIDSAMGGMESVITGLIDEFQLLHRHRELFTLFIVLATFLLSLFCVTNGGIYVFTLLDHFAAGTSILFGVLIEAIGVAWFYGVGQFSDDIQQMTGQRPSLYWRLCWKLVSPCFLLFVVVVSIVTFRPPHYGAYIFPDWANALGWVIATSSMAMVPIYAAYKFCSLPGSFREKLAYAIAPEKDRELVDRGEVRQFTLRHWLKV

[11] = biological target: T2, 5-HT3 (Homo sapiens, UniProt P46098); assay: Off-target full CRC, 5-HT3; type: binding
T2 sequence (P46098 24-478): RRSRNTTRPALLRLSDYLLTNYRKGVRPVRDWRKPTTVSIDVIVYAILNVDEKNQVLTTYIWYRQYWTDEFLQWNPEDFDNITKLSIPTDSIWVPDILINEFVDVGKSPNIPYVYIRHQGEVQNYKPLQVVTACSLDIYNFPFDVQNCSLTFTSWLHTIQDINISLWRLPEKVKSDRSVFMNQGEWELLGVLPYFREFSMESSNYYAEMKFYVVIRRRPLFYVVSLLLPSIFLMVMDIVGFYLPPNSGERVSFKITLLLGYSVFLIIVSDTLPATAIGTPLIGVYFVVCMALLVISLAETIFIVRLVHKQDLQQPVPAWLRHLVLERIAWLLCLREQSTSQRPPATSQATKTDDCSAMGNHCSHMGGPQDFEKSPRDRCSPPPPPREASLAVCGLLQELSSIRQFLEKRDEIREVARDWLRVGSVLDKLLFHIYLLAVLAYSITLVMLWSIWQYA

[12] = system: human M1-3,5; assay: Muscarinic subtype selectivity, human M1-3,5; type: cell-based; settings: read-out: EC50 at human M1-3,5; no activity
[13] = In vitro clearance, rat; settings: predicted
[14] = system: BDZ; assay: Off-target full CRC, BDZ; type: binding
[15] = biological target: Ghrelin receptor (Homo sapiens, UniProt Q92847); assay: Off-target full CRC, Ghrelin receptor; type: binding
Ghrelin receptor, sequence (Q92847 whole entry, species assumed): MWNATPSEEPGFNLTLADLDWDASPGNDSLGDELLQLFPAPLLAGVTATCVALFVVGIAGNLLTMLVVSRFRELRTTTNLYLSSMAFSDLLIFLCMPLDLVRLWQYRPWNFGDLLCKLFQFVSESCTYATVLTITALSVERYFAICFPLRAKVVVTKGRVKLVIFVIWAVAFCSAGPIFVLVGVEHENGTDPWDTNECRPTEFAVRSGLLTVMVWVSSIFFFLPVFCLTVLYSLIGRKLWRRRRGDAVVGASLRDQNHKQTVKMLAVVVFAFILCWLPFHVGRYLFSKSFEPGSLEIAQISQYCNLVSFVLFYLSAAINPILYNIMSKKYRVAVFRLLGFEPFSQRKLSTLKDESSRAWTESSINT

[16] = system: GABA; assay: Off-target full CRC, GABA; type: binding
[17] = system: amphetamine-induced hyperlocomotion; settings: cited from earlier work
[18] = Free fraction, 6 compared with 2; type: in vitro ADME; settings: 6 vs 2
[19] = system: M4; assay: M4 PAM potency, 6 compared with 2; type: cell-based; settings: 6 vs 2

SMILES | CLHEP, human [3] | SERT ligand potency (full CRC) [4] | % inhibition at multiple off-targets in the Eurofin panel [5] | EC50 [6] | Inhibition of CYP 2D6 (in words) [7] | Full dose response AHL, result in words [8] | DAT ligand potency (full CRC) [10] | 5-HT3 ligand potency (full CRC) [11] | EC50 [12] | CLHEP, rat [13] | also measured
CSc1ccc(CNC(=O)c2sc3nnc(C)c(C)c3c2N)cc1 [9a] | – | – | – | – | – | – | – | – | – | – | Fold increase in rat M4 PAM potency relative to 6 [1]: ~10 fold
Cc1nnc2sc(C(=O)NCc3ccc(S(=O)(=O)CF)cc3)c(N)c2c1C [9i] | – | – | – | – | – | – | – | – | – | – | Rat Kp (total brain:plasma partition coefficient) [2]: not detected in the CNS
Cc1nnc2sc(C(=O)NCc3ccc(S(=O)(=O)C(F)F)cc3)c(N)c2c1C [9j] | 9.34 mL/min/kg | 0.6 µM | > 50% | > 30 µM | weak inhibition | efficacious in vivo | 0.175 µM | 1.6 µM | > 30 µM | 28.1 mL/min/kg | hCav1 2 ligand potency (full CRC) [9]: 5.7 µM
Cc1nnc2sc(C(=O)NCc3ccc(S(F)(F)(F)(F)F)cc3)c(N)c2c1C [9l] | 15.0 mL/min/kg | 0.52 µM | > 50% | > 30 µM | weak inhibition | efficacious in vivo | 0.15 µM | 1.5 µM | > 30 µM | 40.5 mL/min/kg | BDZ ligand potency (full CRC) [14]: 1.5 µM; Ghrelin receptor ligand potency (full CRC) [15]: 6.5 µM; GABA ligand potency (full CRC) [16]: 2.1 µM
Cc1nnc2sc(C(=O)NCc3ccc(S(=O)(=O)C(F)(F)F)cc3)c(N)c2c1C [compound 5] | 10.2 mL/min/kg | – | – | > 30 µM | – | – | – | – | > 30 µM | 28.4 mL/min/kg | % reversal in AHL (previously reported) ([17]; 10 mg/kg p.o.): 46%; Minimum effective dose (MED) in AHL ([17]; p.o.): 3 mg/kg; % inhibition at any of the 68 targets in the Eurofin panel [5]: ≤ 50%
COc1ccc(CNC(=O)c2sc3nnc(C)c(C)c3c2N)cc1 [compound 6] | – | – | – | – | – | – | – | – | – | – | Fold increase of free fraction relative to 2 [18]: up to 9 fold; Fold enhancement of M4 PAM potency relative to 2 [19]: 4 fold
